Experimental data published in patent publication US20060246436A1 (priority 2002, published 2006).

Assays:
[1] = test system: peripheral blood cells positive for Ph chromosome; settings: of 18 CML patients; after five months of imatinib treatment
From the text: The remaining four were reserved to test the predictive scoring system later. Of the 22, two “learning” cases (the cases used for the construction of the prediction system described later) were in blast crisis phase and two “test” cases (the cases used for testing the correctness of the prediction system described later) were in accelerated phase.

[2] = test system: Ph chromosome-positive leukemia cells; settings: cited from earlier work

For Cc1ccc(NC(=O)c2ccc(CN3CCN(C)CC3)cc2)cc1Nc1nccc(-c2cccnc2)n1 [imatinib, 4-(4-methylpiperazin-1-ylmethyl)-N-[4-methyl-3-(4-pyridin-3-ylpyrimidin-2-ylamino)phenyl]benzamide], which “patients with more than 65% of cells still positive for the Ph chromosome, non-responders” value [1] is on record?
The value was “six”.

And the adverse effects ([2]; CML patients)?
Its adverse effects is “without severe adverse effects”.

What about the “patients in whom Ph chromosome-positive leukemia cells are completely or partially reduced” value ([2]; CML patients) of the same compound?
Its value is “more than 60%”.

And the “CML patients induced into hematological complete remission” value [2]?
The value was “around 90%”.
